Measurements: paper PMC10746543, “Design principles for cyclin K molecular glue degraders” (Nature Chemical Biology, 2023)
Several values for one entry are separate records, joined by “and”; a condition that tells them apart may be missing. Equal entries are not always repeated.

Key:
[1] = target: T1, CDK12–cyclin K and DDB1 (Homo sapiens, UniProt Q16531+Q9NYV4, K965R); assay: TR-FRET ternary complex formation assay (compound titration); type: binding; conditions: raw replicate titration data
T1 construct: His6–CDK12 (a.a. 713–1,052); full-length or beta-propeller B domain deletion (ΔBPB: a.a. 396–705 deleted) constructs of His6–DDB1ΔBPB, StrepII–Avi–DDB1, or His6–Spy–DDB1; made in house; host or cells: Trichoplusia ni High Five insect cells (baculovirus)
T1 sequence (Q9NYV4 713-1052 K965R): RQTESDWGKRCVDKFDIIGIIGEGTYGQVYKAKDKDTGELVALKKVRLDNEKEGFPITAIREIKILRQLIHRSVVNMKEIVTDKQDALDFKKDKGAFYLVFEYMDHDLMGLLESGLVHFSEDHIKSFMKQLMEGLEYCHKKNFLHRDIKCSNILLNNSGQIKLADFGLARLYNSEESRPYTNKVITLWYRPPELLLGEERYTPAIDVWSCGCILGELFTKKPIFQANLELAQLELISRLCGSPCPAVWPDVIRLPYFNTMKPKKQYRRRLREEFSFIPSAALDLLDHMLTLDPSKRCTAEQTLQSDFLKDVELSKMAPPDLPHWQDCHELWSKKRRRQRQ
T1 sequence (O75909 1-267 partner): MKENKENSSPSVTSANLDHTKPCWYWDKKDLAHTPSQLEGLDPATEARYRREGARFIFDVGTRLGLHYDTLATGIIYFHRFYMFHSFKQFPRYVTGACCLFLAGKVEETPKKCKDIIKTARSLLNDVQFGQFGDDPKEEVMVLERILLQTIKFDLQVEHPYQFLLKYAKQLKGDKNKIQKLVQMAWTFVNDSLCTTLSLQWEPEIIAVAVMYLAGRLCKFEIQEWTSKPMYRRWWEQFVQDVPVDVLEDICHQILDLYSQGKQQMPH
T1 sequence (Q16531 whole entry): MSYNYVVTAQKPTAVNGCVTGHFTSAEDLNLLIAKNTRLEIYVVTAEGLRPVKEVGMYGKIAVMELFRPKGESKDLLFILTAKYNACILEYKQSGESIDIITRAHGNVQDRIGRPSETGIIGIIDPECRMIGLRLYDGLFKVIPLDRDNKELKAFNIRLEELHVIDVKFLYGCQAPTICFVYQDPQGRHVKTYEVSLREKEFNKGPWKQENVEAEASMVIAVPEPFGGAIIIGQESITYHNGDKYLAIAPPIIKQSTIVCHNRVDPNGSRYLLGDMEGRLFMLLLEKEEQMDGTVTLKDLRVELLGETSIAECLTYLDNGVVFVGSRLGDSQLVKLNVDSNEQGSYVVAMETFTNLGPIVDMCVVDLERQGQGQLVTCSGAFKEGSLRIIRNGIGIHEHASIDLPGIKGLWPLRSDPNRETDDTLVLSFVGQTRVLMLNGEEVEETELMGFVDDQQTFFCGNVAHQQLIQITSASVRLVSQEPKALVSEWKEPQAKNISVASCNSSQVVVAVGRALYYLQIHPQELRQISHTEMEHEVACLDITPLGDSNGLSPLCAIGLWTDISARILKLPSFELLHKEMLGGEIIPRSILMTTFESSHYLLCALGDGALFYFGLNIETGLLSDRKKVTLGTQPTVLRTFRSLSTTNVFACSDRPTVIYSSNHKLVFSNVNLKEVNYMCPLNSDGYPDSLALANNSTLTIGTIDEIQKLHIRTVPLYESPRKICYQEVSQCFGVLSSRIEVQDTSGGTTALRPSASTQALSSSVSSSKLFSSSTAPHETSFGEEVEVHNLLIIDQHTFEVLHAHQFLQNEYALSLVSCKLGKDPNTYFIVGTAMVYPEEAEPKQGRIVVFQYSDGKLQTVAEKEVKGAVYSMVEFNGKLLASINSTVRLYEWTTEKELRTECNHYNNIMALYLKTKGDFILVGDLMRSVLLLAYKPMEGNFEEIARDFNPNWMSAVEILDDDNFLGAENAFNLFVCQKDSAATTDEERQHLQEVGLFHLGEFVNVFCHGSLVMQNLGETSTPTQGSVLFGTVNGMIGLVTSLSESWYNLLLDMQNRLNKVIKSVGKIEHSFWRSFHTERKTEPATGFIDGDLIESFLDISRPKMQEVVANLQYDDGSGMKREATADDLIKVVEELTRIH
Text: A 70 μs delay was employed to reduce background fluorescence. The TR-FRET signal was obtained through calculating the ratio of 520 nm to 490 nm fluorescence, and Prism 9 (GraphPad) was used for further data analysis.

[2] = tested on: cyclin K–eGFP degradation reporter; assay: Cyclin K reporter stability analysis (dual-color cyclin K–eGFP reporter); type: cell-based, human; conditions: Supplementary Table 2; HEK293T cycK-eGFP reporter, 5 h; read-out: Cellular assays DC50
Method: HEK293T–Cas9 cells expressing the cyclin K–eGFP degradation reporter were resuspended at 1 × 10^6 ml^−1 and 50 µl of cell suspension was seeded in non-cell-culture-treated 384-well plates. Shortly after, cells were treated with drug or DMSO for 5 h. […] The fluorescent signal was quantified by flow cytometry (LSRFortessa flow cytometer, BD Biosciences). Using FlowJo (flow cytometry analysis software, BD Biosciences), the geometric mean of the eGFP and mCherry fluorescent signal for round and mCherry-positive cells was calculated. The ratio of eGFP to mCherry was normalized to the average of three DMSO-treated controls.

[3] = tested on: HEK293T cells; assay: Drug sensitivity assay (CellTiter-Glo viability) with or without MLN4924 pretreatment; type: cell-based, human; conditions: Supplementary Table 2
Method: HEK293T–Cas9 cells were resuspended at 0.15 × 10^6 ml^−1 treated with DMSO or 100 nM MLN4924 and plated on 384-well plates. After 2 h, the indicated drugs were dispensed with a D300 digital dispenser (Tecan). After 3 days of drug exposure, cell viability was assessed using the CellTiter-Glo luminescent assay (Promega, G7572) on an CLARIOstar Plus, MARS 3.4 (BMG LabTech). Cell viabilities were calculated relative to DMSO controls.

| SMILES | TR-FRET signal at compound concentration 4.68 nM ([1]; compound concentration 4.68 nM) | TR-FRET signal at compound concentration 21.6 nM ([1]; compound concentration 21.6 nM) | TR-FRET signal at compound concentration 36 nM ([1]; compound concentration 36 nM) | TR-FRET signal at compound concentration 79.2001 nM ([1]; compound concentration 79.2001 nM) | TR-FRET signal at compound concentration 158.4 nM ([1]; compound concentration 158.4 nM) | TR-FRET signal at compound concentration 309.6 nM ([1]; compound concentration 309.6 nM) | TR-FRET signal at compound concentration 626.401 nM ([1]; compound concentration 626.401 nM) | TR-FRET signal at compound concentration 1252.8 nM ([1]; compound concentration 1252.8 nM) | TR-FRET signal at compound concentration 2448 nM ([1]; compound concentration 2448 nM) | TR-FRET signal at compound concentration 9936.01 nM ([1]; compound concentration 9936.01 nM) | TR-FRET signal at compound concentration 20016 nM ([1]; compound concentration 20016 nM) | DC50 [2] [nM] | EC50 ([3]; Homo sapiens, HEK-293T, HEK293T viability, 72 h, compound alone, read-out: Cellular assays EC50) [nM] | Toxicity rescue ([3]; MLN4924-mediated cytotoxicity rescue, 10 µM used where n.d.) [%] |
| --- | --- | --- | --- | --- | --- | --- | --- | --- | --- | --- | --- | --- | --- | --- |
| CCc1ccc2nc(Nc3cc(Cc4ccccc4)nc(N[C@H]4CC[C@H](O)CC4)n3)sc2c1 [GSK2250665A, reference compound] | 0.2092 and 0.2185 | 0.2003 and 0.2155 | 0.2049 and 0.2158 | 0.208 and 0.2231 | 0.2009 and 0.2135 | 0.2037 and 0.2058 | 0.2061 and 0.2177 | 0.2168 and 0.2226 | 0.212 and 0.232 | 0.2386 and 0.258 | 0.2819 and 0.2859 | > 10000 | – | – |
| CC(C)(C)c1cnc(CSc2cnc(NC(=O)C3CCN(CC(=O)NCCOCCOCCOCCNc4cccc5c4C(=O)N(C4CCC(=O)NC4=O)C5=O)CC3)s2)o1 (stereo not drawn) [THAL-SNS032] | – | – | – | – | – | – | – | – | – | – | – | < 50 | 192 | 267 |
